Publication PMC11541488, “Targeting the Plasmodium falciparum IspE Enzyme” (ACS Omega, 2024)
Where two headings read alike, the source gives them in different places.

Legend:
Ec IspE = conditions: cited from earlier work
PfIspE [1] = target: T1, PfIspE (Plasmodium falciparum, UniProt Q8I470); experiment: Biochemical IspE assay (PK/LDH-coupled, NADH oxidation at 340 nm)
Excerpt: (§1) Here, we initiated a high-throughput screening (HTS) campaign on the PfIspE protein (Section S1 in the Supporting Information). The HTS was based on a proprietary library of 100 000 compounds from the BASF company and used the inhibitory potency of the compound against the IspE protein as the readout. The IC50 from the IspE assay was also a key parameter for our chemical optimization study. Therefore, it is important to note that the activity of the target enzyme in the IspE assay is coupled to the oxidation of NADH (which is followed spectrophotometrically at 340 nm) via a cascade of the auxiliary enzymes pyruvate kinase and lactate dehydrogenase (PK/LDH, Section S2 in the Supporting Information). Accordingly, to confirm that the effects observed in the IspE assay are due to inhibition of the target enzyme rather than the auxiliary enzymes, it is crucial to maintain a difference between the PK/LDH and IspE enzymatic activities. Furthermore, as we have previously reported, the biological testing of this chemical class requires careful handling such as storage of the compounds at −20 °C.[19] Based on what has been reported in the literature, a risk-mitigation strategy involves adding a substituent to the C-5 position of the thiazole ring,[20] which we have adhered to in this SAR exploration. […]
(§2) kBar. The lysate was then centrifuged at 15000 rpm for 80 minutes at 4 °C to remove cell debris, and the supernatant was collected.
(§3) 1.2. Protein Purification
(§4) The supernatant containing the target protein was applied to a Ni-chelating Sepharose column (1 cm x 20 cm) that had been equilibrated with the lysis buffer containing 15 mM imidazole. The column was washed with the same buffer supplemented with 15 mM imidazole until the OD280 reached the baseline. The bound proteins were then eluted from the column using a gradient of imidazole ranging from 15 mM to 600 mM, collected in a volume of 100 mL.
(§5) If further purification was required, size exclusion chromatography was performed using a Superdex200 (GE, 2 cm x 60 cm) column. The column was equilibrated with the lysis buffer without imidazole. The eluted IspE fractions from the previous chromatography step were directly applied to the top of the Superdex200 column.
(§6) The purity and integrity of the purified PfIspE protein were assessed using SDS-PAGE.
(§7) The molecular weight of the protein was estimated by comparison with standard protein markers. The concentration of the purified protein was determined using a NanoDrop.
(§8) The purified PfIspE protein was aliquoted and stored at - 80 °C until further use.
(§9) (Note: All procedures were performed at 4 °C unless otherwise specified ).
(§10) 2.0 Biochemical IspE assay
(§11) Escherichia coli IspE[1] and Plasmodium falciparum IspE[2] for IspE assays was expressed, isolated and purified as previously described. All other enzymes and chemicals used in the assays were purchased from Sigma-Aldrich (Taufkirchen, […]
For testing of compounds in the IspE assay, CDP-ME (0.2 mM) in 100 mM Tris-HCl, pH 7.6, 0.02% NaN3 (30 µL) was added to a well of the 384-well microplate, preloaded either with DMSO or with test compound dissolved in DMSO (3 µL). The reaction was started by addition of 100 mM Tris-HCl, pH 7.6, 10 mM MgCl2, 60 mM KCl, 10 mM dithiothreitol, 0.02% NaN3, 1 mM NADH, 2 mM phosphoenolpyruvate, 2 mM ATP, […]
pyruvate kinase (1 U mL–1), lactate dehydrogenase (1 U mL–1) and E. coli IspE (0.05 U mL–1) (27 µL per microplate well).
IC50 values were measured at CDP-ME concentration 100 µM. […]
(§12) For both kinds of assays the OD values in the microplate wells were monitored photometrically at 340 nm (room temperature) for 30 to 90 min in a plate reader (SpectraMax5, […], USA). Initial rate values were evaluated with a nonlinear regression method using the program Dynafit.[3]
Figure S1 : IC50 curve of compound 19.
(1 picture or pasted object on this page, not shown here)

[2] = target: PK-LDH (pyruvate kinase/lactate dehydrogenase); experiment: Pyruvate kinase assay (auxiliary enzymes PK/LDH); format: biochemical; conditions: determined for PfIspE IC50 < 100 μM
Excerpt: as §1, with “°C.[19]” for “°C.[19] Based on what has been reported in the literature, a risk-mitigation strategy involves adding a substituent to the C-5 position of the thiazole ring,[20] which we have adhered to in this SAR exploration.”
as §12, with “Dynafit.[3] […]” for “Dynafit.[3]”

PfNF54 = experiment: [3H]-hypoxanthine incorporation assay, asexual blood stage parasites; format: cell-based; conditions: Plasmodium falciparum
Description: However, direct comparison of the two assays is extremely difficult. Consequently, it is essential to note that the existence of additional target proteins within P. falciparum at this stage is neither confirmed nor ruled out. […]
the compound activity against P. falciparum NF54 asynchronous parasites, the [3H]- hypoxanthine incorporation assay was used as described.[4] Compounds dissolved in DMSO (10 mg/mL) are diluted in hypoxanthine - free culture media and was titrated in duplicates over a 64-fold range in 96 well plates. Parasite culture diluted to 0.3% parasitemia with 1.25% final haematocrit with hypoxantine-free medium was added at 100 µL to each well. Following a 48 h incubation, […] [3H]-hypoxanthine was added per well. Plates are incubated for another 24 h. Radioactivity was then measured using MicroBeta2 liquid scintillation counter (Perkin Elmer, Waltham, US) following parasite harvesting onto Microbeta FilterMate cell harvester (Perkin, Elmer, Waltham, US). The fifty percent inhibitory concentration (IC50) was then calculated by linear interpolation as described.[5]
For the background lysate, HEK293 cells (passage 27) were grown to 90% confluency in Dulbecco´s Modified Eagle´s Medium (DMEM high glucose, Sigma) supplemented with 2 mM L-glutamine and 10% (v/v) heat-inactivated fetal calf serum (FCS) in T-175 cell culture flasks. Lysis was performed using HEPES buffer (pH 7.5 , Roth) containing 1% Nonidet P 40 alternative (NP-40), 0.4% sodium dodecyl sulfate (SDS, Roth) and 1% sodium deoxycholate (Roth). The lysate was gently sonicated three times for 10 s on a Bandelin Sonoplus HD2070 at 10% amplitude. The lysate was cleared by centrifugation at 16.000 x g for 10 min. The protein content of the supernatant was determined using a BCA assay (ROTIQuant, Roth) according to the suppliers specifications and adjusted to 5 µg/µL to yield the stock solutions used in the […]
7.2 Reaction with probe 23
The protein samples were prepared to result in 50 µg lysate protein per lane and/or 10 µg of the respective recombinant protein (see section 1 of this SI). […]

PfIspE [3] = target: T1, PfIspE; experiment: Analytical SDS-PAGE, photoprobe labelling and competition of probe 23 with compound 19; format: binding; conditions: for Probe binding to IspE (SDS-PAGE): probe 10 µM, native protein
EcIspE [4] = target: T2, EcIspE (Escherichia coli, UniProt P62615); experiment: as above; format: binding; conditions: for Probe binding to IspE (SDS-PAGE): probe 10 µM, native protein
T2 construct: made in house

EcIspE [5] = target: T2, EcIspE; experiment: Biochemical IspE assay (PK/LDH-coupled); conditions: Table S1; read-out: Inhibitory potency on EcIspE
Description: as §2, §3, §4, §5, §6, §7, §8, §9, §10, §11
as §12, with “Dynafit.[3] […]” for “Dynafit.[3]”

[6] = CDP-ME concentration 100 µM, read-out: IC50 PfIspE
[7] = parasite growth, 72 h total incubation, read-out: IC50 PfNF54
[8] = competitor 19 in 15 times excess
[9] = compound 19 in 15 times excess to probe 23 (10 µM)

T2 sequence (P62615 whole entry): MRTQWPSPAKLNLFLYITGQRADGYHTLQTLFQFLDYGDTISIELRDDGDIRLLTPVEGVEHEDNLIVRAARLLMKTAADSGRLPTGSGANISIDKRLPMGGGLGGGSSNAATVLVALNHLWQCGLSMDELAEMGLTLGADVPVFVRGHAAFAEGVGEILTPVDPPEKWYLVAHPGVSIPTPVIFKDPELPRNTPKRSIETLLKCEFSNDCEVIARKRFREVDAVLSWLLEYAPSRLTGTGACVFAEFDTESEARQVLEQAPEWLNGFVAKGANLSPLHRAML
T1 sequence (Q8I470 entry or part of it): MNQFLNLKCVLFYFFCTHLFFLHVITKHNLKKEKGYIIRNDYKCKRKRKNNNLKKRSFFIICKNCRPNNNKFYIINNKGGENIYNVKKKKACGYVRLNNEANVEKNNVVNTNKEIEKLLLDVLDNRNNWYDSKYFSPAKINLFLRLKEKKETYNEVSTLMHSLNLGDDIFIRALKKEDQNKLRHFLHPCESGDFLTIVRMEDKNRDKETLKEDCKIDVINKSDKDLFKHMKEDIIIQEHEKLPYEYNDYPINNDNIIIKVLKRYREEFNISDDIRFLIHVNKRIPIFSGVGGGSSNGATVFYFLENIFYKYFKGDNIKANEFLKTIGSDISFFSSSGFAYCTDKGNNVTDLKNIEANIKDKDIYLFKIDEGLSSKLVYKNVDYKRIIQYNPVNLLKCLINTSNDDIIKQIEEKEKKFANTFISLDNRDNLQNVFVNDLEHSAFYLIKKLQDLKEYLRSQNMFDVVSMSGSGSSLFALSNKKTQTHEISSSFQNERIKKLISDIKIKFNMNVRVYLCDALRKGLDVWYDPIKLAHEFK

**Q.** For `Nc1nc(=O)n(C2CCCS2)cc1C#CCNS(=O)(=O)C1CC1` (stereo not shown) [Compound 1], which IC50 (Ec IspE) is on record?
**A.** Its IC50 is 8 ± 0.1 µM.

**Q.** Which IC50 (Ec IspE) does the source give for `CCOC(=O)CC1(n2cc(C#CCNS(=O)(=O)C3CC3)c(N)nc2=O)COC1` [Compound 1a] here?
**A.** The IC50 was 590 ± 10 µM.

**Q.** For `NCCC(=O)Nc1ccc(I)cc1Oc1cc(Cl)cc(Cl)c1` [Compound 2], which IC50 (Ec IspE) is on record?
**A.** The IC50 was 63 ± 15 µM.

**Q.** For `Oc1csc(Nc2nccs2)n1` [Compound 7], which IC50 (Ec IspE) is on record?
**A.** The IC50 was 160 ± 0.9 µM.

**Q.** Which IC50 (Ec IspE) does the source give for `C1=C(c2c[nH]c3ncccc23)CCNC1` [Compound 8] here?
**A.** Its IC50 is 1500 ± 300 µM.

**Q.** For `CCn1c(C)cc(-c2csc(Nc3cccc(C(F)(F)F)c3)n2)c1C` [Compound 9], which IC50 (PfIspE [1]; [6]) is on record?
**A.** Its IC50 is 405 ± 114 µM.

**Q.** With `CCn1c(C)cc(-c2csc(Nc3ccccc3C(F)(F)F)n2)c1C` [Compound 10] as the compound, how does the IC50 (PfIspE [1]; [6]) read?
**A.** Its IC50 is greater than 500 µM.

**Q.** Which IC50 (PfIspE [1]; [6]) does the source give for `CCn1c(C)cc(-c2csc(Nc3ccc(C(F)(F)F)cc3)n2)c1C` [Compound 11] here?
**A.** The IC50 was 128 ± 23 µM.

**Q.** With `CCn1c(C)cc(-c2csc(Nc3ccccc3)n2)c1C` [Compound 12] as the compound, how does the IC50 (PfIspE [1]; [6]) read?
**A.** The IC50 was greater than 500 µM.

**Q.** With `CCn1c(C)cc(-c2csc(Nc3ccc(N(C)C)cc3)n2)c1C` [Compound 13] as the compound, how does the IC50 (PfIspE [1]; [6]) read?
**A.** Its IC50 is greater than 500 µM.

**Q.** Which IC50 (PfIspE [1]; [6]) does the source give for `CCn1c(C)cc(-c2csc(Nc3ccc(OC)cc3)n2)c1C` [Compound 14] here?
**A.** Its IC50 is greater than 500 µM.

**Q.** For `CCn1c(C)cc(-c2csc(Nc3ccc(Cl)cc3)n2)c1C` [Compound 15], which IC50 (PfIspE [1]; [6]) is on record?
**A.** The IC50 was 111 ± 34 µM.

**Q.** With `CCn1c(C)cc(-c2csc(Nc3ccc(Cl)nc3)n2)c1C` [Compound 16] as the compound, how does the IC50 (PfIspE [1]; [6]) read?
**A.** The IC50 was 216 ± 53 µM.

**Q.** With `CCn1c(C)cc(-c2csc(Nc3cc(Cl)cc(Cl)c3)n2)c1C` [Compound 17] as the compound, how does the IC50 (PfIspE [1]; [6]) read?
**A.** Its IC50 is 143 ± 24 µM.

**Q.** For `CCn1c(C)cc(-c2csc(Nc3ccc(CN)cc3)n2)c1C` [Compound 18], which IC50 (PfIspE [1]) is on record?
**A.** The IC50 was 86 ± 44 µM.

**Q.** And the IC50 [2]?
**A.** The IC50 was greater than 500 µM.

**Q.** For `CCn1c(C)cc(-c2csc(Nc3ccc4[nH]cnc4c3)n2)c1C` [Compound 19], which IC50 (PfNF54; corresponding to 0.82 μg/mL, read-out: IC50 PfNF54 converted to molar) is on record?
**A.** Its IC50 is roughly 2.4 µM.

**Q.** And the IC50 (PfNF54; [7])?
**A.** The IC50 was 0.82 ± 0.01 µg/mL.

**Q.** What about the “Reduction in fluorescence of probe 23 label” value (PfIspE [3]; [8]) of the same compound?
**A.** Its value is 48%.

**Q.** And the “Relative fluorescence of probe 23 label remaining” value (PfIspE [3]; [9])?
**A.** Its value is roughly 52%.

**Q.** And the “Boost in IspE inhibitory potency compared to initial hit 9” value (PfIspE [1])?
**A.** The value was 8 fold.

**Q.** What about the IC50 (PfIspE [1]; [6]) of the same compound?
**A.** The IC50 was 53 ± 19 µM.

**Q.** And the IC50 [2]?
**A.** The IC50 was greater than 500 µM.

**Q.** What about the “Reduction in fluorescence of probe 23 label” value (EcIspE [4]; [8]) of the same compound?
**A.** The value was 63%.

**Q.** What about the “Relative fluorescence of probe 23 label remaining” value (EcIspE [4]; [9]) of the same compound?
**A.** The value was “about 37%”.

**Q.** With `CCn1c(C)cc(-c2csc(Nc3ccc4[nH]ncc4c3)n2)c1C` [Compound 20] as the compound, how does the IC50 (PfIspE [1]; [6]) read?
**A.** Its IC50 is 121 ± 17 µM.

**Q.** For `C#CCn1c(C)cc(-c2csc(Nc3cccc(CC(F)(F)F)c3)n2)c1C` [Compound 21], which IC50 (PfIspE [1]; [6]) is on record?
**A.** Its IC50 is 286 ± 55 µM.

**Q.** What about the IC50 (EcIspE [5]) of the same compound?
**A.** Its IC50 is greater than 500 µM.

**Q.** What does the source list for `C#CCn1c(C)cc(-c2csc(Nc3ccc(CC(F)(F)F)cc3)n2)c1C` [Compound 22]?
**A.** IC50 (PfIspE [1]; [6]): 192 ± 21 µM; IC50 (EcIspE [5]): 31 ± 13 µM

**Q.** With `C#CCn1c(C)cc(-c2csc(Nc3ccc(C4(C(F)(F)F)N=N4)cc3)n2)c1C` [Compound 23] as the compound, how does the IC50 (PfNF54; [7]) read?
**A.** The IC50 was 9.8 ± 2.9 µg/mL.

**Q.** And the “Probe binding to IspE (SDS-PAGE)” value (PfIspE [3])?
**A.** The value was “high affinity”.

**Q.** What about the IC50 (PfIspE [1]; [6]) of the same compound?
**A.** Its IC50 is 145 ± 42 µM.

**Q.** What about the “Probe binding to IspE (SDS-PAGE)” value (EcIspE [4]) of the same compound?
**A.** The value was “high affinity”.

**Q.** And the IC50 (EcIspE [5])?
**A.** Its IC50 is 77 ± 16 µM.

**Q.** What does the source list for `C#CCCC1(CC(=O)Nc2ccccc2)N=N1` [Compound 24, reference compound]?
**A.** Probe binding to IspE (SDS-PAGE) (PfIspE [3]): does not show the same binding profile; Probe binding to IspE (SDS-PAGE) (EcIspE [4]): does not show the same binding profile
